In paper PMC10622577, “Structural basis for stabilisation of the RAD51 nucleoprotein filament by BRCA2” (Nature Communications, 2023):

Tests used:
[1] = test system: RAD51 nucleoprotein filaments; settings: cited from earlier work
[2] = test system: RAD51 D184A, D187A NPFs; assay: EMSA of TR2 titration on RAD51 D184A, D187A NPFs; type: binding, human
Method: (§1) To assess RAD51 nucleoprotein (NPF) formation, wild-type and mutant RAD51 proteins were incubated with DNA in buffer: 25 mM HEPES pH 7.5, 150 mM NaCl, 2 mM DTT, 2 mM ATP, 5 mM CaCl2 for 15 minutes at room temperature. For filament binding of the TR2 peptide or His6-MBP-TR2 protein, the RAD51 NPFs were incubated with TR2 for further 5 minutes at room temperature. For filament binding of BRC4, the BRC4 peptide was pre-mixed with RAD51 for 10 minutes at room temperature before addition of DNA. For experiments with mono-streptavidin (mSA)-capped DNA, mSA (Sigma) was added in 5× molar excess of biotin labels for 15 minutes at room temperature prior to the addition of RAD51. Concentrations are provided in figures and DNA sequences for each experiment are reported in Supplementary Table 1.
(§2) Before electrophoresis, samples were mixed with a 0.5:1 volume of 50% (w/v) sucrose solution and analysed on a pre-run 0.5% (w/v) agarose gel in 0.5× TB buffer at 35 V for 2.5 hours at 4 °C. DNA was visualised by excitation of the fluorescent tag or, in the case of unlabelled DNA, by SYBR Gold staining. Gels were imaged in a Typhoon FLA9000 by excitation at 473 nm for fluorescein-labelled DNA or SYBR Gold-stained gels, 532 nm excitation for Cy3-labelled DNA or 635 nm excitation for Cy5-labelled DNA.
(§3) Supplementary table 1. DNA oligos and peptides
(§4) Oligos Size (nt) Sequence (5’ – 3’)
D184A […] (forward),
D184A, D187A […] (forward),
EMSA, SPR, CryoEM (micrographs,
Panels C, D (ssDNA) 60 FAM-[…]
Panels C, D (dsDNA) 60 FAM-[…],
Panels E, F (ssDNA) 60 Biotin-[…]
Panels E, F (dsDNA) 60 Biotin-[…],
Supplementary figs. 3, 4 (ssDNA) 60 Biotin-[…]
Supplementary figs. 3, 4 (dsDNA) 60 Biotin-[…],
Panel A (ssDNA) 32 Cy5-[…]
Panel B (dsDNA) 50 […]-Cy3,
Panel B (ssDNA) 60 Biotin-[…]-
Panel B (dsDNA) 60 Biotin,
Panel C (ssDNA) 32 Biotin-[…]-Biotin
Panel C (dsDNA) 50 Biotin-[…]-Cy3,
Supplementary fig. 5A 50 […]-Cy3,
Supplementary fig. 5B (ssDNA) 32 Cy5-[…]-Biotin,
Supplementary fig. 5B (ssDNA) 32 Biotin-[…]-Biotin
Supplementary fig. 5B (dsDNA) 50 Biotin-[…],
Panels B, C, D (ssDNA) 60 FAM-[…]
Panels F, G (ssDNA) 60 […]

[3] = test system: DNA; settings: cited from earlier work
Text: Our cryoEM maps let us model a highly conserved portion of BRCA2 TR2 that spans residues F3289 to C3304. TR2 sequence conservation extends N-terminally to our model, up to K3263. […] Indeed, the bi ...

[4] = test system: RAD51 D184A NPFs; assay: SPR of TR2 binding to RAD51 D184A NPFs; design: species or system human; settings: n = 3
Method: We investigated further the effect of the acidic patch mutations on TR2 binding using surface plasmon resonance (SPR). We developed an SPR assay whereby increasing amounts of TR2 peptide were added to RAD51 NPFs that had been assembled on biotinylated DNA coupled to a streptavidin chip (Supplementary Fig. 3A, Supplementary Table 1). […] We used the same SPR assay to assess the effect of the mutations on the ability of BRC4 to disrupt an established filament (Supplementary Fig. 4A, Supplementary Table 1).
All SPR experiments were performed using a Biacore T200 instrument and an S-series SA (Streptavidin) sensor chip. A single chip was used to immobilise biotinylated single- and double-stranded DNA in buffer: 25 mM HEPES pH 7.4, 100 mM NaCl, 1 mM EDTA. ssDNA and dsDNA were immobilised in different channels to a signal of 120 RU and 250 RU, respectively. […]
For the BRCA2 TR2 titration series, blank-subtracted sensorgrams were used to extract the maximum response accumulated after each TR2 injection. TR2 response accumulation was corrected to account for differences in RAD51 filament formation between runs, by multiplying the maximum response by a scale factor calculated as the ratio between mean RAD51 filament accumulation on each DNA substrate and the mean RAD51 accumulated for each mutant for each triplicate. […]

[5] = test system: RAD51 D184A NPFs; assay: EMSA of TR2 titration on RAD51 D184A NPFs; type: binding, human
Method: as §1, §2, §3, §4
D184A […] (forward), […]

[6] = EMSA, ssDNA compared with dsDNA
[7] = ss- and dsDNA, 25 mM HEPES pH 7.5, 150 mM NaCl, 2 mM ATP, 5 mM CaCl2, TR2 5 min, room temperature, ssDNA performed twice, dsDNA once

DDQKNCKKRRALDFLSRLPLPPPVSPICTFVSPAAQKAFQPPRSCGTKY [TR2, BRCA2 TR2 peptide spanning amino acids 3260 to 3308]
effect of TR2 binding on RAD51 NPFs [1]: stabilisation of RAD51 NPFs and formation of filament aggregates | protection of RAD51 NPFs from disassembly by BRC repeat 4 [1]: protection of RAD51 nucleoprotein filaments from disassembly by BRC repeat 4 of BRCA2 | residual TR2 binding ([2]; EMSA Fig. 1C, authors' response to reviewers): retain a degree of binding | reduction in TR2 binding, ssDNA versus dsDNA filaments [2, 6]: especially pronounced for filaments formed on ssDNA | TR2 binding relative to wild-type [2, 7]: reduction in TR2 binding proportional to the decrease in charge at RAD51’s acidic patch | DNA-binding activity of TR2 [3]: harbours a DNA-binding activity centred on residues 3266-KKRR-3269 | TR2 binding by SPR relative to wild-type ([4]; Biacore T200, streptavidin chip, biotinylated ss- or dsDNA, CMA buffer pH 7.4, 1 μM RAD51, TR2 0.1-15 μM, 120 s): clear reduction in TR2 binding | impact of mutation on TR2 binding by SPR, ssDNA versus dsDNA ([4]; ssDNA compared with dsDNA): stronger for NPFs formed on ssDNA | reduction in TR2 binding, ssDNA versus dsDNA filaments [5, 6]: especially pronounced for filaments formed on ssDNA | TR2 binding relative to wild-type [5, 7]: reduction in TR2 binding proportional to the decrease in charge at RAD51’s acidic patch
